Assay results taken from patent publication US20240391923A1, “METHIONINE ADENOSYLTRANSFERASE 2A INHIBITOR FOR TREATING MTAP DELETION-TYPE CANCER” (SUZHOU GENHOUSE BIO CO., LTD., priority 2022, published 2024).
Like-named read-outs stand apart in the source and are kept apart here.

Legend:
[1] = molecular target: MAT2A recombinant protein (Homo sapiens, UniProt P31153); test: MAT2A inhibitory activity (malachite green colorimetric enzyme assay); assay type: biochemical
How it was run: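 Compounds tested over 10 points, 3-fold dilutions, top final concentration 1000 nM. Enzyme reaction: MAT2A, L-methionine, ATP, room temperature, 60 min, in HEPES pH 7.5 buffer with KCl, MgCl2 and DTT; inorganic phosphate read colorimetrically (malachite green, A630). Inhibition vs log concentration fitted for IC50.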

Hut-78 cell strain = test: Tumor cell proliferation inhibition assay (CellTiter-Glo), Hut-78; assay type: cell-based; settings: Homo sapiens, HuT78, 120 h, Hut-78 cells, 5-day treatment
How it was run: (§1)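 Growth inhibition read as ATP content (CellTiter-Glo) after 5-day compound exposure at 37 °C, 5% CO2. Dosing began 24 h post-seeding, ten 3-fold dilutions starting at 10 μM, alongside a DMSO-treated group.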

[2] = tested on: HCT116-MTAP-knockout (−/−) cell strain; test: Tumor cell proliferation inhibition assay (CellTiter-Glo), HCT116-MTAP-knockout (-/-); assay type: cell-based; settings: Homo sapiens, 120 h, HCT116-MTAP-knockout (−/−) cells, 5-day treatment
How it was run: as §1

[3] = tested on: SDMA in human colon cancer cell line HCT116; test: Cell symmetric dimethylarginine (SDMA) test, In-cell Western, HCT116 (MTAP wild-type); assay type: cell-based; settings: Homo sapiens, HCT-116, 96 h
How it was run: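 SDMA level, an indirect readout of cellular MAT2A inhibition, measured by In-cell Western as background-subtracted 800/700 nm signal against DRAQ5. Cells exposed 4 days to six 1:4-diluted doses from 6 μM; inhibition relative to DMSO, IC50 from sigmoidal fit.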

[4] = tested on: SDMA in HCT116-MTAP-knockout cell line; test: Cell symmetric dimethylarginine (SDMA) test, In-cell Western, HCT116-MTAP-knockout; assay type: cell-based; settings: Homo sapiens, 96 h
[5] = Pharmacokinetic test in mice (IV and PO); assay type: in vivo; settings: BALB/c mice; for AUC / clearance / bioavailability / half-life / Vd: mouse, plasma; for half-life: read-out: T½ (converted); for Vd: read-out: Vz
[6] = IC50 score class, read-out: MAT2A Inhibition (score)
[7] = IC50 score, read-out: Tumor cell 5-day relative growth inhibition (Hut-78) (nM), score
[8] = IC50 value, read-out: Tumor cell 5-day relative growth inhibition (Hut-78)
[9] = IC50 score, read-out: Tumor cell 5-day relative growth inhibition (HCT116-MTAP−/−) (nM), score
[10] = IC50 value, read-out: Tumor cell 5-day relative growth inhibition (HCT116-MTAP−/−)
[11] = IC50 score class, read-out: Cell 96 h SDMA Inhibition (HCT116-MTAP+/+) (score)
[12] = read-out: Cell 96 h SDMA inhibition (HCT116-MTAP+/+)
[13] = IC50 score class, read-out: Cell 96 h SDMA Inhibition (HCT116-MTAP−/−) (score)
[14] = read-out: Cell 96 h SDMA Inhibition (HCT116-MTAP−/−)

MAT2A recombinant protein, sequence (P31153 whole entry): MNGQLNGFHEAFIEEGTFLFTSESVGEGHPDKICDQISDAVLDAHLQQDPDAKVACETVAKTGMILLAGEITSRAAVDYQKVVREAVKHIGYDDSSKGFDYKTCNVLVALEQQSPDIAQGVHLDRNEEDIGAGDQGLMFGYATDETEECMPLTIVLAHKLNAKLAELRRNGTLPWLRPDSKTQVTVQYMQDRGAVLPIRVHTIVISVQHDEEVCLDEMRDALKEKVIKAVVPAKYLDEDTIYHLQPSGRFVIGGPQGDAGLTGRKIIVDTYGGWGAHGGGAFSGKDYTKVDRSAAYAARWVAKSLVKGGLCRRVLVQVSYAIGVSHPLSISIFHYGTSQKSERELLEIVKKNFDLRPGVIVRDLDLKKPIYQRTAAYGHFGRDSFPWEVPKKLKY

Structure (SMILES) | IC50 [1, 6] [nM] | IC50 ([1]; read-out: MAT2A Inhibition) [nM] | IC50 (Hut-78 cell strain; [7]) [nM] | IC50 (Hut-78 cell strain; [8]) [nM] | IC50 [2, 9] [nM] | IC50 [2, 10] [nM] | IC50 [3, 11] [nM] | IC50 [3, 12] [nM] | IC50 [4, 13] [nM] | IC50 [4, 14] [nM] | AUC ([5]; IV 2 mg/kg) [µM·h] | clearance ([5]; IV 2 mg/kg) [mL/min/kg] | bioavailability ([5]; IV 2 mg/kg, PO 10 mg/kg) [%] | half-life ([5]; IV 2 mg/kg) [h] | Vd ([5]; IV 2 mg/kg) [L/kg] | AUC ([5]; PO 10 mg/kg) [µM·h] | half-life ([5]; PO 10 mg/kg) [h] | AUC (in words) ([5]; summary of Table 7) | half-life (T½) (in words) ([5]; summary of Table 7) | other results
Cn1cc2c(n1)c(=O)n(-c1ccccc1Cl)c1nc(C(F)(F)F)ccc21 [Compound B182] | < 100 | 56.9 | 500 to 2000 | 1220 | 500 to 2000 | 1860 | > 3000 | > 3000 | < 200 | 176 | – | – | – | – | – | – | – | – | – | –
Cn1cc2c(n1)c(=O)n(-c1cccc(O)c1)c1nc(C(F)(F)F)ccc21 [Compound B148] | < 100 | 24.6 | < 500 | 135 | – | – | 1000 to 3000 | 1030 | < 200 | 49.2 | – | – | – | – | – | – | – | – | – | –
Cc1ncccc1-n1c(=O)c2nn(C)cc2c2ccc(C(F)(F)F)nc21 (single isomer, unassigned) [Compound B180] | – | – | < 500 | 17.4 | < 500 | 9.6 | < 200 | 99.2 | < 200 | 10.3 | 3.37 | 27.3 | 274 | 0.16 | 0.4 | 46.2 | 0.51 | – | – | –
Cn1cc2c(n1)c(=O)n(-c1cccc3[nH]ncc13)c1cc(Cl)c(F)cc21 [Compound B257] | < 100 | 39.6 | – | – | < 500 | 27.5 | 1000 to 3000 | 2160 | < 200 | 70 | 49.8 | 0.917 | 220 | 9.8 | 0.8 | 2110 | 34.2 | relatively high | relatively long | –
Cn1cc2c(n1)c(=O)n(-c1cccnc1)c1cc(Cl)ccc21 [Compound B12] | – | – | < 500 | 145 | < 500 | 383 | 1000 to 3000 | 1420 | 200 to 1000 | 219 | 4.5 | 22.7 | – | 0.98 | 1.9 | 26.8 | 0.81 | – | – | –
Cn1cc2c(n1)c(=O)n(-c1cccnc1C1CC1)c1cc(Cl)c(F)cc21 [Compound B340] | – | – | – | – | < 500 | 394 | > 3000 | > 10000 | < 200 | 12 | 46 | 1.83 | – | 9.3 | 1.58 | 219 | 7.7 | – | – | –
Cn1cc2c(n1)c(=O)n(-c1cccc3[nH]ncc13)c1cc(Cl)ccc21 [Compound B60] | < 100 | 47.5 | < 500 | 37.1 | < 500 | 12.6 | 200 to 1000 | 467 | < 200 | 34.9 | 119 | 0.667 | 115 | 10 | 0.6 | 683 | 9 | relatively high | relatively long | –
O=c1c2n[nH]cc2c2ccc(C(F)(F)F)nc2n1-c1cccnc1 [Compound B178] | < 100 | 19 | < 500 | 184 | < 500 | 59.1 | 1000 to 3000 | 1060 | < 200 | 37.1 | – | – | – | – | – | – | – | – | – | –
Cn1cc2c(n1)c(=O)n(-c1cccc3[nH]ncc13)c1nc(C(F)(F)F)ccc21 [Compound B181] | < 100 | 14.7 | < 500 | 36.5 | < 500 | 14.6 | 200 to 1000 | 480 | < 200 | 29 | 34.3 | 2.33 | 131 | 7.3 | 1.4 | 242 | 3.45 | relatively high | relatively long | –
Cn1cc2c(n1)c(=O)n(-c1cccc3[nH]ncc13)c1cc(Cl)c(C#N)cc21 [Compound B258] | < 100 | 28 | – | – | < 500 | 235 | > 3000 | > 10000 | < 200 | 67.6 | 21.4 | 2.08 | – | 14.2 | 2.6 | – | – | relatively high | relatively long | tissue distribution (in words) ([5]; concluded from Vz, Table 7): good; Vz value (in words) ([5]; summary of Table 7): relatively high; bioavailability ([5]; IV 2 mg/kg, PO 5 mg/kg): 93%; AUC ([5]; PO 5 mg/kg): 80.7 µM·h; half-life ([5]; PO 5 mg/kg): 7.7 h
